Assays:
CLERK gene expression = assay: CLERK::eGFP-GUS reporter expression in root meristem; assay type: in vivo, Arabidopsis thaliana; conditions: 1 μM CLE26, 5 min vs 60 min (Fig. S1E); compared with VISUAL assay
Source text: B overlay of PI fluorescence withGFP channel, in absence of GFPC overlay of GFP fluorescence withPI channel, in absence of PI […]
Figure S1 – Supplemental figure. (A) Phylogenetic tree of the class II LRR-RKs of Arabidopsis. (B) Col-0 wild type control root meristem, […]
5 days old, confocal microscopy. Left: GFP channel, yellow, note some background on the root edges; Right: Overlay of GFP channel with […]
PI cell wall staining (cyan). (C) CLERK-GFP fusion protein expression pattern, confocal microscopy, imaged without PI cell wall staining.
Left: GFP fluorescence, yellow; Right: Overlay of GFP fluorescence with PI channel, note increased background. (D) BAM3-CITRINE fusion […]
protein expression pattern in a clerk mutant root meristem, confocal microscopy. Left: CITRINE fluorescence, yellow; Right: Overlay of CITRINE […]
fluorescence with PI cell wall staining (cyan). Asterisks indicate protophloem sieve element cell files. (E) CLERK gene expression in response […]
to CLE26 treatment, as monitored by GFP fluorescence in the root meristem of a Col-0 seedling that carried a CLERK::eGFP-GUS transgene, […]
confocal microscopy. The same root is shown at the beginning and end of a time course. GFP fluorescence, yellow; […]

[1] = test system: root meristem protophloem; assay: Protophloem development / CVP2::NLS-VENUS marker in root meristem; assay type: in vivo, Arabidopsis thaliana; conditions: clerk mutant roots, CLE26 treatment; n=18-30 (Fig. 5D)
Source text: Fig. 5. CLERK prevents premature expression of a protophloem marker. (A) Schematic presentation of the protophloem sieve element lineage in the Arabidopsis root meristem. Red asterisk, pericycle cell file; dark-blue asterisk, protophloem sieve element cell file; light-blue asterisk, incipient metaphloem cell file; arrowheads indicate the two periclinal divisions. […] Left: VENUS fluorescence, yellow. Right: overlay of VENUS fluorescence with PI cell wall staining (cyan). Asterisk indicates protophloem sieve element cell file. (D) Quantification of protophloem strand presence/absence in root meristems of a Col-0 wild type or clerk mutant upon CLE26 treatment. Statistically significant differences when compared with mock control are indicated by letters ([…], P<0.001; n=18-30). […] (G) Distance between first detectable CVP2 expression and the quiescent center (QC) in Col-0 wild type and clerk mutants, expressed as cell number. […] (H) Distance between first detectable CVP2 expression and the quiescent center (QC) in Col-0 wild type and clerk mutants, expressed as absolute distance. […] (J) Quantification of cell file number in Col-0 wild type or clerk mutants, counted at the level where protoxylem has differentiated. […] Left: VENUS fluorescence, yellow; Right: overlay of VENUS fluorescence with PI cell wall staining (cyan). […]

Arabidopsis root growth = conditions: ref Hazak et al., 2017; cited from earlier work
Source text: The incapacity of clerk loss-of-function second site mutation to suppress the brx phenotype (unlike second site bam3 or clv2-crn loss of function) is also of interest with respect to the role of CLE peptide signaling in the spatiotemporal progression of protophloem sieve element differentiation. Resistance of clerk mutants against root-active CLE peptides as well as CLERK expression in early protophloem reiterate the key role of the protophloem in CLE sensing in the root ([Hazak et al., 2017]). Yet not all CLE peptides have an equally strong effect on root growth, which correlates with their i ...

BAM3 ectodomain = conditions: ref Hazak et al., 2017; cited from earlier work
Source text: The CLE resistance of clerk mutants could be explained through indirect effects, for example on the expression of bona fide CLE receptors, as proposed for crn ([Hazak et al., 2017]). To evaluate this scenario, we focused our efforts on the only identified CLE receptor in the root protophloem so far, the CLE45 receptor BAM3 ([Hazak et al., 2017]; [Kang and Hardtke, 2016]). Introduction of a BAM3::BAM3-CITRINE transgene into clerk mutants did however not reveal any altered BAM3 expression or localization (Fig. S1D). To also test whether CLERK could serve as a co-receptor for BAM3 instead, we obt ...

Sequence | CLERK downregulation in the root meristem (CLERK gene expression) | Protophloem development in clerk mutants [1] | Relative strength as root-active CLE peptide (Arabidopsis root growth) | Binding to BAM3 ectodomain (BAM3 ectodomain)
RKVPRGPDPIHN [CLE26] | an equally strong effect was not observed in the root meristem | maintained protophloem development | – | –
RRVRRGSDPIHN [CLE45] | – | – | strongest root-active CLE peptide | high-affinity
